# pIC50: −log10 of the molar value.
# Tests used:
# [1] = molecular target: T1, GST-Flk1 (Mus musculus, UniProt P35918); assay: GST-FLK-1 bioassay (bio flkGST), ELISA; assay type: biochemical
# T1 construct: GST-Flk1cd purified from sf9 recombinant baculovirus transformation (SUGEN, Inc.); host or cells: Sf9 (baculovirus)
# Protocol: This assay analyzes the tyrosine kinase activity of GST-Flk1 on poly(glu,tyr) peptides.
# • 1. […] Preparation of poly(glu,tyr)(pEY) coated assay plates: Coat 2 ug/well of poly(glu,tyr)(pEY) in 100 ul PBS, hold at room temperature for 2 hours or at 4° C. overnight. Cover plates well to prevent evaporation. • 4. […] When all reagents have dissolved, adjust the pH to 7.2 with HCl. Bring total volume to 1 L with dH2O. • 5. PBST Buffer: to 1 L of PBS Buffer, add 1.0 ml Tween-20. • 6. […] Adjust pH to 7.2 with HCl. Add 10 g BSA, stir to dissolve. Bring total volume to 1 L with dH2O. Filter to remove particulate matter. • 7. […] Adjust total volume to 1 L with PBS buffer, filter to remove particulate matter. • 8. 50 mM Hepes pH 7.5. • 9. GST-Flk1cd purified from sf9 recombinant baculovirus transformation (SUGEN, Inc.). • 10. 4% DMSO in dH2O. • 11. 10 mM ATP in dH2O. • 12. 40 mM MnCl2 • 13. […] Add 10 N NaOH until EDTA dissolves. Adjust pH to 8.0. Adjust total volume to 100 ml with dH2O. • 16. […] Anti-phosphotyrosine monoclonal antibody conjugated to horseradish peroxidase (PY99 HRP, Santa Cruz Biotech). • 18. 2,2′-Azinobis(3-ethylbenzthiazoline-6-sulfonic acid (ABTS, Moss, Cat. No. ABST). • 19. 10% SDS. Procedure: • 1. Coat Corning 96-well ELISA plates with 2 μg of polyEY peptide in sterile PBS as described in step 3 of Materials and Reagents. • 2. Remove unbound liquid from wells by inverting plate. Wash once with TBST. Pat the plate on a paper towel to remove excess liquid. • 3. Add 100 μl of 1% BSA in PBS to each well. Incubate, with shaking, for 1 hr. at room temperature. • 4. Repeat step 2. • 5. Soak wells with 50 mM HEPES (pH 7.5) (150 μl/well). • 6. Dilute test compound with dH2O/4% DMSO to 4 times the desired final assay concentration in 96-well polypropylene plates. • 7. Add 25 μl diluted test compound to ELISA plate. In control wells, place 25 μl of dH2O/4% DMSO. • 8. […] Add 25 μl 0.5M EDTA to negative control wells. • 10. Dilute GST-Flk1 to 0.005 μg (5 ng)/well with KDB. • 11. Add 50 μl of diluted enzyme to each well. • 12. Incubate, with shaking, for 15 minutes at room temperature. • 13. […] Wash 3×with TBST and pat plate on paper towel to remove excess liquid. • 15. […] Incubate, with shaking, for 90 min. at room temperature. • 16. Wash as in step 14. • 17. Add 100 μl of room temperature ABTS solution to each well. • 18. […] Remove any bubbles. • 19. Stop reaction by adding 20 μl of 10% SDS to each well. • 20.
# [2] = molecular target: T2, PDGFR-β (NIH 3T3 cell lysate) (Homo sapiens, UniProt P09619); assay: PDGFR bioassay, ELISA; assay type: biochemical; details: read-out: bio PDGF IC50
# T2 construct: host or cells: NIH 3T3
# Protocol: Corning 96-well Elisa plates • 2. 28D4C10 monoclonal anti-PDGFR antibody (SUGEN, Inc.). • 3. PBS. • 4. TBST Buffer. • 5. Blocking Buffer (same as for EGFR bioassay). • 6. PDGFR-β expressing NIH 3T3 cell lysate (SUGEN, Inc.). • 7. TBS Buffer. • 8. TBS+10% DMSO. • 9. ATP. • 10. MnCl2. • 11. Kinase buffer phosphorylation mix: for 10 ml, mix 250 μl 1M TRIS, 200 μl 5M NaCl, 100 μl 1M MnCl2 and 50 μl 100 mM Triton X-100 in enough dH2O to make 10 ml. • 12. NUNC 96-well V bottom polypropylene plates. • 13. EDTA. • 14. Rabbit polyclonal anti-phosphotyrosine serum (SUGEN, Inc.). • 15. Goat anti-rabbit IgG peroxidase conjugate (Biosource Cat. No. ALI0404). • 16. ABTS. • 17. Hydrogen peroxide, 30% solution. • 18. ABTS/H2O2. • 19. 0.2 M HCl. Procedure: • 1. Coat Corning 96 well ELISA plates with 0.5 μg 28D4C10 in 100 μl PBS per well, store overnight at 4° C. • 2. Remove unbound 28D4C10 from wells by inverting plate to remove liquid. • Wash 1×with dH2O. Pat the plate on a paper towel to remove excess liquid. • 3. Add 150 μl of Blocking Buffer to each well. Incubate for 30 min. at room temperature with shaking. • 4. Wash plate 3×with deionized water, then once with TBST. Pat plate on a paper towel to remove excess liquid and bubbles. • 5. Dilute lysate in HNTG (10 μg lysate/100 μl HNTG). • 6. Add 100 μl of diluted lysate to each well. Shake at room temperature for 60 min. • 7. Wash plates as described in Step 4. • 8. Add 80 μl working kinase buffer mix to ELISA plate containing captured PDGFR. • 9. […] Add 10 μl diluted test compound to ELISA plate. To control wells, add 10 μl TBS+10% DMSO. Incubate with shaking for 30 minutes at room temperature. • 11. Add 10 μl ATP directly to all wells except negative control well (final well volume should be approximately 100 μl with 20 μM ATP in each well.) Incubate 30 minutes with shaking. • 12. Stop reaction by adding 10 μl of EDTA solution to each well. • 13. Wash 4×with deionized water, twice with TBST. • 14. Add 100 μl anti-phosphotyrosine (1:3000 dilution in TBST) per well. Incubate with shaking for 30-45 min. at room temperature. • 15. Wash as in Step 4. • 16. […] Incubate with shaking for 30 min. at room temperature. • 17. Wash as in Step 4. • 18. Add 100 μl of ABTS/H2O2 solution to each well. • 19. Incubate 10 to 30 minutes with shaking. Remove any bubbles. • 20. If necessary stop reaction with the addition of 100 μl 0.2 M HCl per well. • 21.
# [3] = molecular target: T3, HER-2 kinase (EGFr/HER-2 chimera/3T3-C7 cell line) (Homo sapiens, UniProt P04626); assay: Cellular HER-2 kinase assay, whole-cell ELISA; assay type: cell-based; details: read-out: Her2 Kinase IC50
# T3 construct: fused on or other part: EGFR extracellular part, stimulated by EGF and captured by the anti-EGFR antibody SUMO1; P00533 (Epidermal growth factor receptor)
# Protocol: This assay is used to measure HER-2 kinase activity in whole cells in an ELISA format.
# Fetal Bovine Serum (FBS, GIBCO Catalog #16000-044), heat inactivated in a water bath for 30 min. at 56° C. • 3. […] PBS. • 9. […] Corning 96-well ELISA Plates. • 12. NUNC 96-well V bottom polypropylene plates. • 13. […] SUMO 1: monoclonal anti-EGFR antibody (SUGEN, Inc.). • 15. TBST Buffer. • 16. Blocking Buffer: 5% Carnation Instant Milk® in PBS. • 17. […] Suspend powder in 100 uL of 10 mM HCl. Add 100 uL 10 mM NaOH. Add 800 uL PBS and transfer to an Eppendorf tube, store at −20° C. until ready to use. • 18. […] EDTA. • 20. Na3VO4. […] Boil in microwave for one minute (solution becomes clear). • Cool to room temperature. Adjust pH to 10. Repeat heating/cooling cycle until pH remains at 10. • 21. 200 mM Na4P2O7. • 22. Rabbit polyclonal antiserum specific for phosphotyrosine (anti-Ptyr antibody, SUGEN, Inc.). • 23. Affinity purified antiserum, goat anti-rabbit IgG antibody, peroxidase conjugate (Biosource Cat #ALI0404). • 24. ABTS Solution. • 25. 30% Hydrogen peroxide solution. • 26. ABTS/H2O2. • 27. 0.2 M HCl. Procedure: • 1. Coat Corning 96 well ELISA plates with SUMO1 at 1.0 ug per well in PBS, 100 ul final volume/well. Store overnight at 4° C. • 2. On day of use, remove coating buffer and wash plate 3 times with dH2O and once with TBST buffer. All washes in this assay should be done in this manner, unless otherwise specified. • 3. Add 100 ul of Blocking Buffer to each well. Incubate plate, with shaking, for 30 min. at room temperature. Just prior to use, wash plate. • 4. Use EGFr/HER-2 chimera/3T3-C7 cell line for this assay. • 5. Choose dishes having 80-90% confluence. Collect cells by trypsinization and centrifuge at 1000 rpm at room temperature for 5 min. • 6. Resuspend cells in starve medium and count with trypan blue. Viability above 90% is required. Seed cells in starve medium at a density of 2,500 cells per well, 90 ul per well, in a 96 well microtiter plate. Incubate seeded cells overnight at 37° under 5% CO2. • 7. Start the assay two days after seeding. • 8. Test compounds are dissolved in 4% DMSO. Samples are then further diluted directly on plates with starve-DMEM. Typically, this dilution will be 1:10 or greater. […] Incubate at 37° C. for 10 min. • 13. Remove test compound, EGF, and DMEM. Wash cells once with PBS. • 14. Transfer HNTG* to cells, 100 ul per well. Place on ice for 5 minutes. • Meanwhile, remove blocking buffer from ELISA plate and wash. • 15. Scrape cells from plate with a micropipettor and homogenize cell material by repeatedly aspirating and dispensing the HNTG* lysis buffer. Transfer lysate to a coated, blocked, washed ELISA plate. Or, use a Costar transfer cartridge to transfer lysate to the plate. • 16. Incubate, with shaking, at room temperature for 1 hr. • 17. Remove lysate, wash. Transfer freshly diluted anti-Ptyr antibody (1:3000 in TBST) to ELISA plate, 100 ul per well. • 18. Incubate, with shaking, at room temperature, for 30 min. • 19. Remove anti-Ptyr antibody, wash. Transfer freshly diluted BIOSOURCE antibody to ELISA plate (1:8000 in TBST, 100 ul per well). • 20. Incubate, with shaking, at room temperature for 30 min. • 21. Remove BIOSOURCE antibody, wash. Transfer freshly prepared ABTS/H2O2 solution to ELISA plate, 100 ul per well. • 22. […] Remove any bubbles. • 23. Stop reaction with the addition of 100 ul of 0.2M HCl per well. • 24.
# [4] = molecular target: T4, human cdk2/cyclin A (Homo sapiens, UniProt P24941); assay: CDK2/cyclin A scintillation proximity assay (cdk2spa); assay type: biochemical; details: read-out: cdk2spa C50
# T4 construct: host or cells: Sf9
# Protocol: Amersham Redivue [γ^33P] […] Amersham streptavidin coated polyvinyltoluene SPA beads (Amersham catalog #RPNQ0007). The beads should be reconstituted in PBS without magnesium or calcium, at 20 mg/ml. • 4. Activated cdk2/cyclin A enzyme complex purified from Sf9 cells (SUGEN, Inc.). • 5. Biotinylated peptide substrate (Debtide). […] The ultimate concentration per well will be 0.5 μM “cold” ATP, 0.1 μg Debtide and 0.2 μCi γ^33P ATP. • 7. […] 10 mM ATP in dH2O. • 9. 1M Tris, pH adjusted to 7.4 with HCl. • 10. 1M MgCl2. • 11. 1M DTT. • 12. […] 0.5M EDTA. • 14. […] Procedure: • 1. Prepare solutions of test compounds at 5×the desired final concentration in 5% DMSO. Add 10 ul to each well. For negative controls, use 10 ul 5% DMSO alone in wells. • 2. […] Add 20 ul enzyme to each well. • 4. Add 10 μL of 0.5 M EDTA to the negative control wells. • 5. To start kinase reaction, add 20 μL of peptide/ATP mixture to each well. • Incubate for 1 hr. without shaking. • 6. Add 200 μl stop solution to each well. • 7. Hold at least 10 min. • 8. […] Count plate using Trilux or similar reader.
# [5] = tested on: Lewis Lung tumors; assay: Lewis Lung Model; assay type: in vivo, mice
# Protocol: Mice were injected subcutaneously in the left paw (1×10^6 tumor cells suspended in 30% Matrigel) and tumor volume was evaluated using a phlethysmometer twice a week for 30-60 days. […] The data are expressed as the mean+/−SEM. Student's and Mann-Whitney tests were used to assess differences between means using the InStat software package. […] Analysis of lung metastasis was done in all the animals by counting metastasis in a stereomicroscope and by histochemical analysis of consecutive lung sections.
# [6] = tested on: HT-29 human colon cancer cells; assay: HT-29 Model; assay type: in vivo, nude mice
# Protocol: Mice were injected subcutaneously in the left paw (1×10^6 tumor cells suspended in 30% Matrigel) and tumor volume was evaluated using a phlethysmometer twice a week for 30-60 days. Implantation of human colon cancer cells (HT-29) into nude mice produces tumors that will reach 0.6-2 ml between 30-50 days. […] The data are expressed as the mean+/−SEM. Student's and Mann-Whitney tests were used to assess differences between means using the InStat software package.
# The efficacy of both agents were determined by measuring tumor volume.
# [7] = tested on: HT-29 human colon cancer cells; assay: HT-29 Model; assay type: in vivo, nude mice; details: HT-29 assay A
# [8] = molecular target: T5, EGFR (A431 cell lysate) (Homo sapiens, UniProt P00533); assay: EGFR bioassay, ELISA; assay type: biochemical; details: read-out: bio EGF IC50
# T5 construct: A431 cell lysate (SUGEN, Inc.); host or cells: A431
# Protocol: This assay is used to the in vitro kinase activity of FGF1-R in an ELISA assay.
# Corning 96-well Elisa plates. • 2. SUMOL1 monoclonal anti-EGFR antibody (SUGEN, Inc.). • 3. PBS • 4. TBST Buffer • 5. Blocking Buffer: for 100 ml, mix 5.0 g Carnation Instant Non-fat Milk® with 100 ml of PBS. • 6. A431 cell lysate (SUGEN, Inc.). • 7. TBS Buffer: • 8.
# bring to 1 liter total volume with dH2O. • 9. […] This reagent should be made up immediately prior to use and kept on ice. • 10. 1.0 mM MnCl2. • 11. […] Prepare just prior to use, keep on ice. • 12. NUNC 96-well V bottom polypropylene plates. • 13. EDTA. • 14. Rabbit polyclonal anti-phosphotyrosine serum (SUGEN, Inc.). • 15. Goat anti-rabbit IgG peroxidase conjugate (Biosource Cat. No. ALI0404). • 16. ABTS. • 17. 30% Hydrogen peroxide. • 18. ABTS/H2O2 • 19. 0.2 M HCl. Procedure: • 1. Coat Corning 96 well ELISA plates with 0.5 μg SUMO1 in 100 μl PBS per well, store overnight at 4° C. • 2. Remove unbound SUMO1 from wells by inverting plate to remove liquid. Wash 1×with dH2O. Pat the plate on a paper towel to remove excess liquid. • 3. Add 150 μl of Blocking Buffer to each well. Incubate, with shaking, for 30 min. at room temperature. • 4. Wash plate 3×with deionized water, then once with TBST. Pat plate on a paper towel to remove excess liquid and bubbles. • 5. Dilute lysate in PBS (7 μg lysate/100 μl PBS). • 6. Add 100 μl of diluted lysate to each well. Shake at room temperature for 1 hr. • 7. Wash plates as in 4, above. • 8. Add 120 μl TBS to ELISA plate containing captured EGFR. • 9. […] Add 13.5 μl diluted test compound to ELISA plate. To control wells, add 13.5 μl TBS in 10% DMSO. • 11. Incubate, with shaking, for 30 minutes at room temperature. • 12. Add 15 μl phosphorylation mix to all wells except negative control well. Final well volume should be approximately 150 μl with 3 μM ATP/5 mM MnCl2 final concentration in each well. Incubate with shaking for 5 minutes. • 13. Stop reaction by adding 16.5 μl of EDTA solution while shaking. Shake for additional 1 min. • 14. Wash 4×with deionized water, 2×with TBST. • 15. Add 100 μl anti-phosphotyrosine (1:3000 dilution in TBST) per well. Incubate, with shaking, for 30-45 min. at room temperature. • 16. Wash as in 4, above. • 17. […] Incubate with shaking for 30 min. at room temperature. • 18. Wash as in 4, above. • 19. Add 100 μl of ABTS/H2O2 solution to each well. • 20. Incubate 5 to 10 minutes with shaking. Remove any bubbles. • 21. If necessary, stop reaction by adding 100 μl 0.2 M HCl per well. • 22.
# [9] = molecular target: EGFR (Homo sapiens, UniProt P00533); assay: cell EGF assay; assay type: cell-based
# Protocol: Several of the assays described herein are performed in an ELISA (Enzyme-Linked Immunosorbent […]) format (Voller, et al, 1980, “Enzyme-Linked Immunosorbent Assay,” Manual of Clinical Immunology, 2d ed., Rose and Friedman, Am. Soc. Of Microbiology, Washington, D.C., pp. 359-371). The general procedure is as follows: a compound of Formula (I) is introduced to cells expressing the test kinase, either naturally or recombinantly, for a selected period of time after which, if the test kinase is a receptor, a ligand known to activate the receptor is added. The cells are lysed and the lysate is transferred to the wells of an ELISA plate previously coated with a specific antibody recognizing the substrate of the enzymatic phosphorylation reaction. Non-substrate components of the cell lysate are washed away and the amount of phosphorylation on the substrate is detected with an antibody specifically recognizing phosphotyrosine compared with control cells that were not contacted with a test compound.
# Specifically, the results shown indicate the concentration of a test compound needed to cause a 50% reduction of the activity of the target PTK. Bioassays which have been or can be used to evaluate compounds are described in detail below.
# T3 sequence (P04626 720-987 limits assumed, change not shown): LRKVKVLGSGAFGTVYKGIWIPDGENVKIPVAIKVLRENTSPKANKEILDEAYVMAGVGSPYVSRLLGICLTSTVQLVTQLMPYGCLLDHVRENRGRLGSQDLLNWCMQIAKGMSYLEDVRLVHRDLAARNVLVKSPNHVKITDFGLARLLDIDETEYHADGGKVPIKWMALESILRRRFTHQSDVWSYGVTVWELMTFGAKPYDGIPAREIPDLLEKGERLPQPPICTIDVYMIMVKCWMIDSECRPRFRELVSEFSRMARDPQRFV
# Chain of EGFR (P00533 25-1210, species assumed): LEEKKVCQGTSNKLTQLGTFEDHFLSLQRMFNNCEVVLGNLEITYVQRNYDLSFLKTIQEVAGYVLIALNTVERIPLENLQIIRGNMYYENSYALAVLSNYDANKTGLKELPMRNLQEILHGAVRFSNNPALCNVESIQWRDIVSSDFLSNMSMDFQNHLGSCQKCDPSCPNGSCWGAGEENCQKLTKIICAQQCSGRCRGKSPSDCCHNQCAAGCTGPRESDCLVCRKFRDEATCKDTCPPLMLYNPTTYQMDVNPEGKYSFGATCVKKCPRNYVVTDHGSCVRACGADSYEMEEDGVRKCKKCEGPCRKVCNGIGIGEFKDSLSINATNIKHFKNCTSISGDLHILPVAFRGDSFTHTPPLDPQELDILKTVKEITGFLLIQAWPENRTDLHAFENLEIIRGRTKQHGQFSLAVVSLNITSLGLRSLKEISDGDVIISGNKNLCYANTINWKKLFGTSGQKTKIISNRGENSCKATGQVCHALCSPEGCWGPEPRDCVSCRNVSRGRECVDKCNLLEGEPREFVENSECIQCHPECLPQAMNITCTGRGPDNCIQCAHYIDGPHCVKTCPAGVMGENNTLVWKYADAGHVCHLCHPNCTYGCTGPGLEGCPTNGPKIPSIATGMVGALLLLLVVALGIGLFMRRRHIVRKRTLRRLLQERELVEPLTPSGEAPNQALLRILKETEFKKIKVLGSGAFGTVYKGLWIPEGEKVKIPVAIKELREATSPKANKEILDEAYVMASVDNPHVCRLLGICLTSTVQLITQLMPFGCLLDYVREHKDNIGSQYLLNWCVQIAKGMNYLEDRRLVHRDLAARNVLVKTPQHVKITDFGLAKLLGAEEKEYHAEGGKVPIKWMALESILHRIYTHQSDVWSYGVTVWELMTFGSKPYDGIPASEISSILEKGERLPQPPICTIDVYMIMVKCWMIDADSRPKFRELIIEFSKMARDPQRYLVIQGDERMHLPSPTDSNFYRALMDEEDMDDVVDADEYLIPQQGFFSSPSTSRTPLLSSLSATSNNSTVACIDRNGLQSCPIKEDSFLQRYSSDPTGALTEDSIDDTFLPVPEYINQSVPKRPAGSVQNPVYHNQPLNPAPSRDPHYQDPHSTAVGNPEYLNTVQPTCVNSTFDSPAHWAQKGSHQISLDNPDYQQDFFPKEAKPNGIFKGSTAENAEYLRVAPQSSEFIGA
# T2 sequence (P09619 33-1106): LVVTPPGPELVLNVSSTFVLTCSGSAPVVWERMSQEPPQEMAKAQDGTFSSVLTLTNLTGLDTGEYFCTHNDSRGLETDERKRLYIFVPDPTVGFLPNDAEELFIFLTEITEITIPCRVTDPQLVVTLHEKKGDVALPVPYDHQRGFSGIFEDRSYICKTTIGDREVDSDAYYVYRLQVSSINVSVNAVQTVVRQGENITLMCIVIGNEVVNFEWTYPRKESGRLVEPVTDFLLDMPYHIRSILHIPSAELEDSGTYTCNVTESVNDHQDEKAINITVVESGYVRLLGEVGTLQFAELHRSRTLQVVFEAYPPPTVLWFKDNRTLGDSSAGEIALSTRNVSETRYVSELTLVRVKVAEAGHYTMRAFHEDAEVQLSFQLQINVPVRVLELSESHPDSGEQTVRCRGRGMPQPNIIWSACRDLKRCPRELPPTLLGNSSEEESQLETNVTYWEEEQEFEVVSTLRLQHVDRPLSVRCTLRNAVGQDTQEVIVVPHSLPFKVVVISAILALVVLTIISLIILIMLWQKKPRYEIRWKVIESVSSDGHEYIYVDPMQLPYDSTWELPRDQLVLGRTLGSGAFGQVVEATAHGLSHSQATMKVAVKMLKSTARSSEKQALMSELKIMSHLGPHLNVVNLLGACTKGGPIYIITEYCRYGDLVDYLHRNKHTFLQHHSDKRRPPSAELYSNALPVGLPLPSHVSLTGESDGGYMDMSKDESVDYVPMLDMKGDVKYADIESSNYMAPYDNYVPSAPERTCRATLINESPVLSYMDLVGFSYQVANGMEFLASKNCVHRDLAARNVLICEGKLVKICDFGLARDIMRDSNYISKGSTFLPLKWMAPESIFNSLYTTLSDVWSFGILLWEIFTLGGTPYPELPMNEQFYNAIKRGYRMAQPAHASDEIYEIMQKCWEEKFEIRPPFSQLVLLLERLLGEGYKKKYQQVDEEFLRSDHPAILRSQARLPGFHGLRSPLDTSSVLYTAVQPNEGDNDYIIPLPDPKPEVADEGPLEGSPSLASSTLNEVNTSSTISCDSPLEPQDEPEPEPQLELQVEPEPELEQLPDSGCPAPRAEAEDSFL
# T1 sequence (P35918 784-1345 limits assumed): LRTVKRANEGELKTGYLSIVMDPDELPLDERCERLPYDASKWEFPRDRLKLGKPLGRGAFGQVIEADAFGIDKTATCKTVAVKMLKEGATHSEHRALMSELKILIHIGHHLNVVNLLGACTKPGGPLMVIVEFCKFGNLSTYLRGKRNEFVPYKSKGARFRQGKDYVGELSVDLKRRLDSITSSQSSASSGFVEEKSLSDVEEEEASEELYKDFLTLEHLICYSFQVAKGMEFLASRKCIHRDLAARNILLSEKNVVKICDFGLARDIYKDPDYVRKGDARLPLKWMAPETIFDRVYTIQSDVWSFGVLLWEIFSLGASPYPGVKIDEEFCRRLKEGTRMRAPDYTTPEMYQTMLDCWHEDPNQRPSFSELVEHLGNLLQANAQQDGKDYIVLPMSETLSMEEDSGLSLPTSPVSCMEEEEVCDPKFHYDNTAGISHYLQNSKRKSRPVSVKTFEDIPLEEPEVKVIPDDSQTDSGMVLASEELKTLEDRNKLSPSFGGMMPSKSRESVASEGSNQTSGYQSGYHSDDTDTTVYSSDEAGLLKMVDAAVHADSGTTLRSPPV
# T5 sequence (P00533 25-1210): as the sequence (P00533 25-1210, species assumed) above
compound,measurement,setting,value
"CNS(=O)(=O)c1ccc2c(c1)/C(=C/c1[nH]cc(C(=O)O)c1C)C(=O)N2 [Example 115, 4-Methyl-5-(5-methylsulfamoyl-2-oxo-1,2-dihydro-indol-3-ylidenemethyl)-1H-pyrrole-3-carboxylic Acid]",pIC50,[1],5.14
same,pIC50,[2],5.13
same,pIC50,[3],< 4.00
same,pIC50,[4],8.22
Cc1ccc(-c2cc(C(F)(F)F)nn2-c2ccc(S(N)(=O)=O)cc2)cc1 [Celecoxib],effect on lung metastasis,[5]; 160 ppm in the diet,did not affect
same,reduction of surface metastasis,[5]; 480-3200 ppm in the diet,more than 50%
same,size of the metastasic lesions in the lung,[5]; histopathological analysis,dose-dependently reduced
same,tumor Volume,"[6]; 10 ppm in the diet from day 10, day 14",0.124 mL
same,tumor Volume,"[6]; 10 ppm in the diet from day 10, day 22",0.25 mL
same,tumor Volume,"[6]; 10 ppm in the diet from day 10, day 28",0.36 mL
same,tumor Volume,"[6]; 10 ppm in the diet from day 10, day 35",0.57 mL
same,tumor Volume,"[6]; 10 ppm in the diet from day 10, day 42",0.89 mL
same,tumor Volume,"[6]; 10 ppm in the diet from day 10, day 50",1.49 mL
same,tumor Volume,"[6]; 40 ppm in the diet from day 10, day 14",0.125 mL
same,tumor Volume,"[6]; 40 ppm in the diet from day 10, day 22",0.19 mL
same,tumor Volume,"[6]; 40 ppm in the diet from day 10, day 28",0.27 mL
same,tumor Volume,"[6]; 40 ppm in the diet from day 10, day 35",0.4 mL
same,tumor Volume,"[6]; 40 ppm in the diet from day 10, day 42",0.68 mL
same,tumor Volume,"[6]; 40 ppm in the diet from day 10, day 50",1.04 mL
same,tumor Volume,"[6]; 160 ppm in the diet from day 10, day 14",0.120 mL
same,tumor Volume,"[6]; 160 ppm in the diet from day 10, day 22",0.14 mL
same,tumor Volume,"[6]; 160 ppm in the diet from day 10, day 28",0.21 mL
same,tumor Volume,"[6]; 160 ppm in the diet from day 10, day 35",0.3 mL
same,tumor Volume,"[6]; 160 ppm in the diet from day 10, day 42",0.49 mL
same,tumor Volume,"[6]; 160 ppm in the diet from day 10, day 50",0.8 mL
same,effect in combination with a cytotoxic agent (cyclophosphamide),"[6]; celecoxib in the diet, cytoxin i.p. 50 mg/kg on days 5, 7 and 9",positive benefit
"NS(=O)(=O)c1ccc(-n2nc(C(F)(F)F)cc2-c2ccc(Cl)cc2)cc1 [SC-58236, 4-[5-(4-chorophenyl)-3-(trifluoromethyl)-1H-pyrazole-1-yl]benzenesulfonamide]",reduction of tumor volume,[6]; HT-29 assay A,89%
same,formation of lung metastasis,[7],completely inhibited
"Cc1[nH]c(/C=C2\C(=O)Nc3ccc(-c4ccccc4)cc32)c(C)c1C(=O)NCCCn1ccnc1 [Example 58, 2,4-Dimethyl-5-(2-oxo-5-phenyl-1,2-dihydroindol-3-ylidenemethyl)-1H-pyrrole-3-carboxylic Acid (3-imidazol-1-ylpropyl)amide]",pIC50,[8],< 4.00
same,pIC50,[9],< 4.00
same,pIC50,[3],< 4.00
"Cc1cc(C)c(/C=C2\C(=O)N(CN3CCCC3)c3ccccc32)[nH]1 [Example 206, (3Z)-3-[(3,5-dimethyl-1H-pyrrol-2-yl)-methylidene]-1-(1-pyrrolidinylmethyl)-1,3-dihydro-2H-indol-2-one]",melting point,,129 to 132 °C
"CCN(CC)CCNC(=O)c1c(C)[nH]c(/C=C2\C(=O)Nc3cc(-c4cc(Cl)cc(Cl)c4)ccc32)c1C [Example 62, 5-[6-(3,5-Dichlorophenyl)-2-oxo-1,2-dihydroindol-3-ylidenemethyl]-2,4-dimethyl-1H-pyrrole-3-carboxylic Acid (2-diethylaminoethyl)amide]",pIC50,[8],< 4.00
same,pIC50,[9],< 4.00
same,pIC50,[3],< 4.00
"CNS(=O)(=O)c1ccc2c(c1)/C(=C/c1[nH]cc(C(=O)NCC(=O)O)c1C)C(=O)N2 [Example 118, {[4-Methyl-5-(5-methylsulfamoyl-2-oxo-1,2-dihydro-indol-3-ylidenemethyl)-1H-pyrrole-3-carbonyl]-amino}-acetic Acid]",pIC50,[1],5.71
same,pIC50,[2],5.92
same,pIC50,[3],< 4.00
same,pIC50,[4],8.70
COc1ccc2c(c1)c(CC(=O)O)c(C)n2C(=O)c1ccc(Cl)cc1 [indomethacin],inhibition of tumor formation,"[6]; 2 mg/kg/day in the drinking water, near the maximum tolerated dose",77%
same,formation of lung metastasis,[7],ineffective
"CCN(CC)CCCNC(=O)c1c(C)[nH]c(/C=C2\C(=O)Nc3ccc(Br)cc32)c1-c1ccccc1 [Example 47, 5-(5-Bromo-2-oxo-1,2-dihydroindol-3-ylidenemethyl)-2-methyl-4-phenyl-1H-pyrrole-3-carboxylic Acid (3-diethylaminopropyl)amide]",pIC50,[4],< 4.70
"CCOC(=O)CNC(=O)c1c[nH]c(/C=C2\C(=O)Nc3ccc(S(=O)(=O)NC)c(C)c32)c1C [Example 116, {[4-Methyl-5-(4-methyl-5-methylsulfamoyl-2-oxo-1,2-dihydro-indol-3-ylidenemethyl)-1H-pyrrole-3-carbonyl]-amino}-acetic Acid Ethyl Ester]",pIC50,[1],< 4.70
same,pIC50,[2],< 4.00
same,pIC50,[3],< 4.00
same,pIC50,[4],> 9.30
"CCN(CC)CCNC(=O)c1c(C)[nH]c(/C=C2\C(=O)Nc3cc(-c4cccnc4)ccc32)c1C [Example 63, 2,4-Dimethyl-5-(2-oxo-6-pyridin-3-yl-1,2-dihydroindol-3-ylidenemethyl)-1H-pyrrole-3-carboxylic Acid (2-diethylaminoethyl)amide]",pIC50,[2],> 6.11
same,pIC50,[9],< 4.00
same,pIC50,[3],< 4.00
"Cc1cc(C)c(/C=C2\C(=O)N(CN3CCN(C)CC3)c3ccccc32)[nH]1 [Example 205, (3Z)-3-[(3,5-dimethyl-1H-pyrrol-2-yl)-methylidene]-1-[1-(4-methylpiperazinyl)methyl]-dihydro-2H-indol-2-one]",melting point,,160 to 164 °C

# Source: US7320996B2, “Indolinone protein kinase inhibitors and cyclooxygenase inhibitors for use in combination therapy for the treatment of cancer” (Sugen, Inc, priority 2001, dated 2008)
